This passage reports IC50 results from US8461329B2, “Isoquinoline derivative” (Taisho Pharmaceutical Co., Ltd., priority 2008, dated 2013).

SMILES strings stand for the structures. Read-outs that look alike come from different tables or passages of the source.

In one assay the target is T1, CRTH2 (KB8 cells) (Homo sapiens, UniProt Q9Y5Y4).
T1 construct: host or cells: KB8 cells (human CRTH2 expression cell)
T1 sequence (Q9Y5Y4 1-395): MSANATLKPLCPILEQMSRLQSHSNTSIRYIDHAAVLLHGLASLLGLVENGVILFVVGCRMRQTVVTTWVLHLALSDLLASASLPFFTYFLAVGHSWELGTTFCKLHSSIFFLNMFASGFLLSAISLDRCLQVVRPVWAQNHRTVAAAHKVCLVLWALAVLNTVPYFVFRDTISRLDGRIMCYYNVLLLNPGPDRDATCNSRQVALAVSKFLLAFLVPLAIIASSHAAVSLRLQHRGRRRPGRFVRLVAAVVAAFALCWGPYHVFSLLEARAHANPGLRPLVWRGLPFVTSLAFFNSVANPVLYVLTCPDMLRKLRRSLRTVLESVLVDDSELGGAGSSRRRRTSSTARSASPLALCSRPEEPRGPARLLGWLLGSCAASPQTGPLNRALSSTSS
As to the kind of experiment: CRTH2 antagonist test (PGD2-induced intracellular calcium ion concentration increase in KB8 cells). To be noted: PGD2 final concentration 100 nM, Fluo-4-AM fluorescence, read-out: antagonist activity (IC50 value, inhibition of calcium ion concentration increase). In kind it is cell-based. In a few lines:
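Fluo-4-AM-loaded KB8 cells in HBSS with 10 mM HEPES and 1 mM CaCl2 received compound plus PGD2 (final 100 nM); peak fluorescence followed over time. Inhibition was computed against no-compound and unlabelled-PGD2 controls, and IC50 obtained from a dose-response curve.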

In assay [1] the target is T2, human CRTH2 expression cell KB8 (Homo sapiens, UniProt Q9Y5Y4).
T2 construct: host or cells: KB8 cells (human CRTH2 expression cell)
T2 sequence (Q9Y5Y4 1-395): T1 sequence (Q9Y5Y4 1-395)
The experiment in a line: CRTH2 binding test (3H-PGD2 binding to KB8 cells). Conditions: 3H-PGD2 5 nM, 4° C., one hour. How it is done:
CRTH2 binding inhibitory activity of the compound of the present invention was considered by using a binding test between human CRTH2 expression cell KB8 (BML, INC.) and ^3H-labeled prostaglandin D2 (hereinafter, abbreviated as ^3H-PGD2, manufactured by GE Healthcare).
KB8 was suspended in a reaction buffer solution (Hank's balanced salt solution (Invitrogen) containing 10 mM HEPES (Invitrogen)), which was dispensed in a 96 well plate (Coaster) so that 2×10^5 cells/well are placed. Furthermore, the compound of the present invention and ^3H-PGD2 (final concentration: 5 nM) were added, stirred, and incubated at 4° C.
One hour later, cells were collected on GF/C Filter Plate (PerkinElmer) that had been pre-coated with 0.5% polyethyleneimine solution (SIGMA) by using a Cell Harvester (Packard BioScience), and the radioactivity of the cells was measured by using Top count NXT (PerkinElmer) (a value measured herein was represented by a measurement value “a”). The same procedure was carried out in the absence of the compound, and a measurement value “b” was obtained; and the same procedure was carried out in the absence of the compound and in the presence of non-labeled PGD2 (final concentration: 50 μM), a measurement value “c” was obtained.
The binding inhibition rate of the compound was calculated by the following calculation formula: Bonding inhibitory rate(%)=[1−(a−c)/(b−c)]×100
That is to say, by using binding inhibition rates of compounds to be tested having various concentrations, the IC50 value was calculated according to a dose-dependent inhibition curve analyzed by using XLfit (IDBS) as a data analysis software, and the calculated value was defined as an indicator of the inhibitory activity. In Table 9, A denotes an inhibitory activity showing the IC50 value of less than 50 nM; B denotes an inhibitory activity showing the IC50 value of 50 nM or greater and less than 500 nM; C denotes an inhibitory activity showing the IC50 value of 500 nM or greater and less than 1000 nM; and D denotes an inhibitory activity showing the IC50 value of 1000 nM or greater.

The mark [2] stands for this setting: IC50 class, read-out: binding inhibitory activity.
[3] abbreviates: read-out: CRTH2 binding inhibitory activity IC50 value.

In the case of `CC(C)(C)OC(=O)Nc1ccc(C(=O)c2ncc(CC(=O)O)c3ccccc23)cc1` [Example 1, [1-({4-[(tert-butoxycarbonyl)amino]phenyl}carbonyl)isoquinolin-4-yl]acetic acid], the IC50 on CRTH2 (KB8 cells) is 0.05 to 0.5 µM; in assay [1] (setting [2]) it was below 0.05 µM. With `O=C(O)Cc1cnc(C(=O)c2ccc(NC(=O)c3ccc(Cl)c(Cl)c3)cc2)c2ccccc12` [Example 2, {1-[(4-{[(3,4-dichlorophenyl)carbonyl]amino}phenyl)carbonyl]isoquinolin-4-yl}acetic acid], the IC50 (on CRTH2 (KB8 cells); in assay [1] (setting [2])) was below 0.05 µM in each case.

On to `O=C(O)Cc1cnc(C(=O)c2ccc(NC(=O)Cc3ccc(Cl)c(Cl)c3)cc2)c2ccccc12` [Example 3], for which the IC50 (on CRTH2 (KB8 cells); in assay [1] (setting [2])) was below 0.05 µM each time. Turning to `O=C(O)Cc1cnc(C(=O)c2ccc(NC(=O)CCc3ccc(Cl)c(Cl)c3)cc2)c2ccccc12` [Example 4], the IC50 (at CRTH2 (KB8 cells); in assay [1] (setting [2])) was below 0.05 µM in each case. Consider `O=C(O)Cc1cnc(C(=O)c2ccc(NC(=O)C3(c4ccc(Cl)c(Cl)c4)CC3)cc2)c2ccccc12` [Example 5], for which the figures for the IC50 (at CRTH2 (KB8 cells); in assay [1] (setting [2])) were 0.05 to 0.5 µM and below 0.05 µM, respectively.

Take `O=C(O)Cc1cnc(C(=O)c2ccc(NC(=O)/C=C/c3ccc(Cl)c(Cl)c3)cc2)c2ccccc12` [Example 6]: the IC50 (at CRTH2 (KB8 cells); in assay [1] (setting [2])) was below 0.05 µM each time. With `COc1ccc(C(=O)Nc2ccc(C(=O)c3ncc(CC(=O)O)c4ccccc34)cc2)cc1` [Example 7], the IC50 (on CRTH2 (KB8 cells); in assay [1] (setting [2])) was below 0.05 µM throughout.

As for `O=C(O)Cc1cnc(C(=O)c2ccc(NC(=O)c3ccc(OC(F)(F)F)cc3)cc2)c2ccccc12` [Example 8], the IC50 (on CRTH2 (KB8 cells); in assay [1] (setting [2])) was below 0.05 µM throughout. Take `O=C(O)Cc1cnc(C(=O)c2ccc(NC(=O)c3ccc(Oc4ccccc4)cc3)cc2)c2ccccc12` [Example 9]: the IC50 was 0.05 to 0.5 µM on CRTH2 (KB8 cells) and below 0.05 µM in assay [1] (setting [2]). In the same order, the values of `O=C(O)Cc1cnc(C(=O)c2ccc(NC(=O)c3ccc(-c4ccccc4)cc3)cc2)c2ccccc12` [Example 10] are below 0.05 µM and below 0.05 µM. For `O=C(O)Cc1cnc(C(=O)c2ccc(NC(=O)c3ccc(C(F)(F)F)cc3)cc2)c2ccccc12` [Example 11], in that order: below 0.05 µM and below 0.05 µM.

With `CN(C)c1ccc(C(=O)Nc2ccc(C(=O)c3ncc(CC(=O)O)c4ccccc34)cc2)cc1` [Example 12], the IC50 (at CRTH2 (KB8 cells); in assay [1] (setting [2])) was below 0.05 µM in each case. In the case of `N#Cc1ccc(C(=O)Nc2ccc(C(=O)c3ncc(CC(=O)O)c4ccccc34)cc2)cc1` [Example 13], the IC50 is at least 1 µM on CRTH2 (KB8 cells) and below 0.05 µM in assay [1] (setting [2]). For `O=C(O)Cc1cnc(C(=O)c2ccc(NC(=O)c3ccc4ccccc4c3)cc2)c2ccccc12` [Example 14], in that order: below 0.05 µM and below 0.05 µM.

For `O=C(O)Cc1cnc(C(=O)c2ccc(NC(=O)c3ccc([N+](=O)[O-])cc3)cc2)c2ccccc12` [Example 15], the IC50 (on CRTH2 (KB8 cells); in assay [1] (setting [2])) was below 0.05 µM in each case. As for `Cc1ccc(C(=O)Nc2ccc(C(=O)c3ncc(CC(=O)O)c4ccccc34)cc2)cc1` [Example 17], the IC50 (at CRTH2 (KB8 cells); in assay [1] (setting [2])) was below 0.05 µM in each case. For the molecule `O=C(O)Cc1cnc(C(=O)c2ccc(NC(=O)c3cc4ccccc4[nH]3)cc2)c2ccccc12` [Example 18], the figures for the IC50 (at CRTH2 (KB8 cells); in assay [1] (setting [2]); in assay [1] (setting [3])) were below 0.05 µM, below 0.05 µM and 0.0035 µM, respectively. In the case of `CC(=O)Nc1ccc(C(=O)c2ncc(CC(=O)O)c3ccccc23)cc1` [Example 19], the IC50 in assay [1] (setting [2]) was 0.05 to 0.5 µM. As for `O=C(O)Cc1cnc(C(=O)c2ccc(NC(=O)C3CC3)cc2)c2ccccc12` [Example 20], the IC50 in assay [1] (setting [2]) was below 0.05 µM. With `O=C(O)Cc1cnc(C(=O)c2ccc(NC(=O)CC3CCCCC3)cc2)c2ccccc12` [Example 21], the values for the IC50 (at CRTH2 (KB8 cells); in assay [1] (setting [2])) were 0.05 to 0.5 µM and below 0.05 µM, respectively. In the same order, the values of `O=C(O)Cc1cnc(C(=O)c2ccc(NC(=O)Cc3ccc(-c4ccccc4)cc3)cc2)c2ccccc12` [Example 22] are 0.05 to 0.5 µM and below 0.05 µM. For `O=C(O)Cc1cnc(C(=O)c2ccc(NC(=O)COc3ccc(Cl)c(Cl)c3)cc2)c2ccccc12` [Example 23], in that order: below 0.05 µM and below 0.05 µM. For `O=C(O)Cc1cnc(C(=O)c2ccc(NC(=O)c3cccc(Cl)c3)cc2)c2ccccc12` [Example 27], in that order: below 0.05 µM and below 0.05 µM. For `O=C(O)Cc1cnc(C(=O)c2ccc(NC(=O)c3ccc(Cl)cc3)cc2)c2ccccc12` [Example 29], the IC50 (at CRTH2 (KB8 cells); in assay [1] (setting [2])) was below 0.05 µM each time. As to `O=C(O)Cc1cnc(C(=O)c2ccc(NC(=O)c3ccc(F)c(Cl)c3)cc2)c2ccccc12` [Example 34], the IC50 (at CRTH2 (KB8 cells); in assay [1] (setting [2])) was below 0.05 µM throughout. As for `O=C(O)Cc1cnc(C(=O)c2ccc(NC(=O)c3cc4ccccc4o3)cc2)c2ccccc12` [Example 50], the IC50 (at CRTH2 (KB8 cells); in assay [1] (setting [2])) was below 0.05 µM in each case.

On to `CCCCCc1ccc(C(=O)Nc2ccc(C(=O)c3ncc(CC(=O)O)c4ccccc34)cc2)cc1` [Example 57], for which the IC50 is below 0.05 µM at CRTH2 (KB8 cells), below 0.05 µM in assay [1] (setting [2]) and 0.0034 µM in assay [1] (setting [3]). As for `O=C(O)Cc1cnc(C(=O)c2ccc(NC(=O)c3cccc(Br)c3)cc2)c2ccccc12` [Example 75], the IC50 at CRTH2 (KB8 cells) is below 0.05 µM; in assay [1] (setting [2]), below 0.05 µM; in assay [1] (setting [3]) it was 0.0029 µM. As for `O=C(O)Cc1cnc(C(=O)c2ccc(NC(=O)C3CCC(c4ccc(Cl)cc4)CC3)cc2)c2ccccc12` (stereo not drawn) [Example 82], the IC50 on CRTH2 (KB8 cells) is below 0.05 µM; in assay [1] (setting [2]), below 0.05 µM; in assay [1] (setting [3]), 0.0028 µM. For `O=C(O)Cc1cnc(C(=O)c2ccc(NC(=O)/C=C/c3ccc(F)cc3)cc2)c2ccccc12` [Example 83], the IC50 (at CRTH2 (KB8 cells); in assay [1] (setting [2])) was below 0.05 µM in each case. `O=C(O)Cc1cnc(C(=O)c2ccc(NC(=O)c3cc4cc(Cl)ccc4[nH]3)cc2)c2ccccc12` [Example 92]: the IC50 (at CRTH2 (KB8 cells); in assay [1] (setting [2])) was below 0.05 µM in each case. `O=C(O)Cc1cnc(C(=O)c2cccc(NC(=O)c3ccc(Cl)c(Cl)c3)c2)c2ccccc12` [Example 127, {1-[(3-{[(3,4-dichlorophenyl)carbonyl]amino}phenyl)carbonyl]isoquinolin-4-yl}acetic acid]: in assay [1] (setting [2]), the IC50 was 0.05 to 0.5 µM.

For `CN(C(=O)c1ccc(Cl)c(Cl)c1)c1ccc(C(=O)c2ncc(CC(=O)O)c3ccccc23)cc1` [Example 128, {1-[(4-{[(3,4-dichlorophenyl)carbonyl](methyl)amino}phenyl)carbonyl]isoquinolin-4-yl}acetic acid], the IC50 in assay [1] (setting [2]) lay within 0.05 to 0.5 µM. The same measure, in the same setting: under `O=C(O)Cc1cnc(C(=O)c2ccc(NS(=O)(=O)c3ccc(Cl)c(Cl)c3)cc2)c2ccccc12` [Example 129, {1-[(4-{[(3,4-dichlorophenyl)sulfonyl]amino}phenyl)carbonyl]isoquinolin-4-yl}acetic acid] stands 0.05 to 0.5 µM. Turning to `O=C(O)Cc1cnc(C(=O)c2ccc(NC(=O)Nc3ccc(Cl)c(Cl)c3)cc2)c2ccccc12` [Example 130, {1-[(4-{[(3,4-dichlorophenyl)carbamoyl]amino}phenyl)carbonyl]isoquinolin-4-yl}acetic acid], the IC50 (on CRTH2 (KB8 cells); in assay [1] (setting [2])) was below 0.05 µM throughout. Turning to `O=C(O)Cc1cnc(C(=O)c2ccc(NC(=O)OCc3ccc(Cl)c(Cl)c3)cc2)c2ccccc12` [Example 131, (1-{[4-({[(3,4-dichlorobenzyl)oxy]carbonyl}amino)phenyl]carbonyl}isoquinolin-4-yl)acetic acid], the IC50 (at CRTH2 (KB8 cells); in assay [1] (setting [2])) was below 0.05 µM throughout.

Take `O=C(O)Cc1cnc(C(=O)c2ccc(Cc3ccccc3)cc2)c2ccccc12` [Example 144, {1-[(4-benzyl phenyl)carbonyl]isoquinolin-4-yl}acetic acid]: the IC50 in assay [1] (setting [2]) was in the range of 0.05 to 0.5 µM.
